Assay results published in PMC8620910, “Design and Synthesis of (2-oxo-1,2-Dihydroquinolin-4-yl)-1,2,3-triazole Derivatives via Click Reaction: Potential Apoptotic Antiproliferative Agents” (Molecules, 2021).

What was measured:
[1] = Cell viability assay (MTT) on MCF-10A; type: cell-based; settings: human, MCF-10A mammary epithelial cells, four days
Description: A human mammary gland epithelial cell line was used in the cell viability assay (MCF-10A). MCF-10A cells were incubated with compounds 8a–l for four days, and cell viability was determined using an MTT assay.
An MTT assay was performed to investigate the effect of the synthesized compounds on mammary epithelial cells (MCF-10A) at a concentration of 50 µM for the tested compound. The cells were propagated in a medium consisting of Ham’s F-12 medium/Dulbecco’s modified Eagle’s medium (DMEM) (1:1) supplemented with 10% fetal calf serum, 2 mM glutamine, insulin (10 μg/mL), hydrocortisone (500 ng/mL), and epidermal growth factor (20 ng/mL). Trypsin ethylenediamine tetra acetic acid (EDTA) was used to pass the cells every 2–3 days. Ninety-six-well flat-bottomed cell culture plates were used to seed the cells at a density of 10^4 cells mL^−1. The medium was aspirated from all the wells of culture plates after 24 h followed by the addition of synthesized compounds (in 200 μL medium to yield a final concentration of 0.1% (v/v) dimethylsulfoxide) into individual wells of the plates. Four wells were designated to a single compound. The plates were allowed to incubate at 37 °C for 96 h. Afterward, the medium was aspirated, and 3-[4,5-dimethylthiazol-2-yl]-2,5-diphenyltetrazolium bromide (MTT) (0.4 mg/mL) in the medium was added to each well and subsequently incubated for 3 h. The medium was aspirated, and 150 μL dimethyl sulfoxide (DMSO) was added to each well. The plates were vortexed, followed by the measurement of absorbance at 540 nm on a microplate reader. The results were presented as inhibition (%) of proliferation compared to controls comprising 0.1% DMSO.

[2] = test system: A-549, MCF-7, Panc-1 and HT-29 cell lines; assay: Average anti-proliferative IC50 over the four cancer cell lines; type: cell-based, human; settings: for IC50: Homo sapiens, average of A-549, MCF-7, Panc-1, HT-29; for fold decrease in activity relative to 8c: from average IC50
Description: (§1) Tested 8a–l compounds were assessed for their anti-proliferative activity against four human cancer cell lines, including the pancreatic cancer cell line (Panc-1), breast cancer cell line (MCF-7), colon cancer cell line (HT-29), and epithelial cancer cell line (A-549) using propidium iodide fluorescence assay and the reference doxorubicin.
(§2) To explore the anti-proliferative potential of compounds, propidium iodide fluorescence assay was performed using different cell lines such as Panc-1 (pancreas cancer cell line), MCF-7 (breast cancer cell line), HT-29 (colon cancer cell line), and A-549 (epithelial cancer cell line), respectively. To calculate the total nuclear DNA, a fluorescent dye (propidium iodide, PI) is used to attach to the DNA, thus offering a quick and precise technique. PI cannot pass through the cell membrane, and its signal intensity can be considered as directly proportional to the quantity of cellular DNA. Cells whose cell membranes are damaged or have changed permeability are counted as dead ones. The assay was performed by seeding the cells of different cell lines at a density of 3000–7500 cells/well (in 200 μL medium) in culture plates followed by incubation for 24 h at 37 °C in humidified 5%CO2/95% air atmospheric conditions. The medium was removed; the compounds were added to the plates at 10 μM concentrations (in 0.1% DMSO) in triplicates, followed by incubation for 48h. DMSO (0.1%) was used as a control. After incubation, the medium was removed, followed by the addition of PI (25 μL, 50 μg/mL in water/medium) to each well of the plates. At −80 °C, the plates were allowed to freeze for 24 h, followed by thawing at 25 °C. A fluorometer (Polar-Star BMG Tech, Beijing, China) was used to record the readings at excitation and emission wavelengths of 530 and 620 nm for each well. The percentage cytotoxicity of compounds was calculated using the following formula: % Cytotoxicity=AC−ATC/AC×100 where ATC = absorbance of treated cells and AC = absorbance of control. Doxorubicin was used as a positive control in the assay.

[3] = test system: colon cancer cell line (HT-29); assay: Anti-proliferative propidium iodide fluorescence assay, HT-29; type: cell-based; settings: Homo sapiens, read-out: Anti-Proliferative Activity IC50 ± SEM, HT-29
Description: as §1, with “doxorubicin. Results (IC50) are illustrated in Table 3.” for “doxorubicin.”
as §2

[4] = test system: epithelial cancer cell line (A-549); assay: Anti-proliferative propidium iodide fluorescence assay, A-549; type: cell-based; settings: Homo sapiens, A549; read-out: Anti-Proliferative Activity IC50 ± SEM, A-549
Description: as §1, with “doxorubicin. Results (IC50) are illustrated in Table 3.” for “doxorubicin.”
as §2

[5] = test system: pancreatic cancer cell line (Panc-1); assay: Anti-proliferative propidium iodide fluorescence assay, Panc-1; type: cell-based; settings: Homo sapiens, read-out: Anti-Proliferative Activity IC50 ± SEM, Panc-1
Description: as §1, with “doxorubicin. Results (IC50) are illustrated in Table 3.” for “doxorubicin.”
as §2

[6] = test system: breast cancer cell line (MCF-7); assay: Anti-proliferative propidium iodide fluorescence assay, MCF-7; type: cell-based; settings: Homo sapiens, MCF7; read-out: Anti-Proliferative Activity IC50 ± SEM, MCF-7
Description: as §1, with “doxorubicin. Results (IC50) are illustrated in Table 3.” for “doxorubicin.”
as §2

active Caspase 3 = assay: Caspase 3 activation assay in MCF-7
Description: All reagents were allowed to reach room temperature before use. All liquid reagents were gently mixed before use. The number of 8-well strips needed for the assay was determined. These were inserted into the frame(s) for current use. A total of 100 μL of the Standard Diluent Buffer was added to the zero standard wells. Well(s) reserved for chromogen blank were left empty. A total of 100 μL of standards and controls or diluted samples was added to the appropriate microtiter wells. The sample dilution chosen was optimized for each experimental system. The side of the plate was gently tapped on to mix. Wells were covered with a plate cover and incubated for 2 h at room temperature. […]
The working dilution was prepared as described in Preparing IgG HRP. […] The incubation time for chromogen substrate was determined by the microtiter plate reader used.
Many plate readers have the capacity to record a maximum optical density (O.D.) of 2.0. The O.D. values were monitored, and the substrate reaction was stopped before the O.D. of the positive wells exceeds the limits of the instrument. The O.D. values at 450 nm could only be read after the Stop Solution had been added to each well. […] The absorbance of each well was read at 450 nm, having blanked the plate reader against a chromogen blank composed of 100 μL each of Stabilized Chromogen and Stop Solution. […]

Structure (SMILES)	viability at 96 h, 50 µM [1] [%]	IC50 [2] [µM]	fold decrease in activity relative to 8c [2] [fold]	IC50 [3] [µM]	IC50 [4] [µM]	IC50 [5] [µM]	IC50 [6] [µM]	Caspase 3 Conc (active Caspase 3; MCF-7) [pg/mL]	Caspase 3 Fold Change (active Caspase 3; MCF-7, versus untreated control) [fold]	fold reduction of the average IC50 value relative to 8a ([2]; replacement of NH by N-CH3)
O=c1cc(-n2cc(COc3ccc(C(c4c(O)c5ccccc5[nH]c4=O)c4c(O)c5ccccc5[nH]c4=O)cc3)nn2)c2ccccc2[nH]1 [Compound 8a, 3,3’-((4-((1-(2-oxo-1,2-dihydroquinolin-4-yl)-1H-1,2,3-triazol-4-yl)methoxy)phenyl)-methylene)bis(4-hydroxyquinolin-2(1H)-one)]	89	5.58	1.5	5.7 ± 0.4	5.7 ± 0.4	5.6 ± 0.6	5.3 ± 0.8			
Cc1ccc2[nH]c(=O)cc(-n3cc(COc4ccc(C(c5c(O)c6ccccc6[nH]c5=O)c5c(O)c6ccccc6[nH]c5=O)cc4)nn3)c2c1 [Compound 8b, 3,3’-((4-((1-(6-Methyl-2-oxo-1,2-dihydroquinolin-4-yl)-1H-1,2,3-triazol-4-yl)methoxy)phenyl)methylene)bis(4-hydroxyquinolin-2(1H)-one)]	87	7.4	2	7.5 ± 0.4	7.6 ± 0.8	7.6 ± 0.6	6.9 ± 0.8			
COc1ccc2[nH]c(=O)cc(-n3cc(COc4ccc(C(c5c(O)c6ccccc6[nH]c5=O)c5c(O)c6ccccc6[nH]c5=O)cc4)nn3)c2c1 [Compound 8c, 3,3’-((4-((1-(6-Methoxy-2-oxo-1,2-dihydroquinolin-4-yl)-1H-1,2,3-triazol-4-yl)methoxy)phenyl)methylene)bis(4-hydroxyquinolin-2(1H)-one)]	91	3.85		4.2 ± 0.2	3.9 ± 0.5	4.1 ± 0.2	3.2 ± 0.08			
Cn1c(=O)cc(-n2cc(COc3ccc(C(c4c(O)c5ccccc5[nH]c4=O)c4c(O)c5ccccc5[nH]c4=O)cc3)nn2)c2ccccc21 [Compound 8d, 3,3’-((4-((1-(1-Methly-2-oxo-1,2-dihydroquinolin-4-yl)-1H-1,2,3-triazol-4-yl)methoxy)phenyl)methylene)bis(4-hydroxyquinolin-2(1H)-one)]	89	11.8		11.4 ± 1.2	12.9 ± 0.8	11.6 ± 0.8	11.5 ± 1.1			
COc1ccc2[nH]c(=O)c(C(c3ccc(OCc4cn(-c5cc(=O)[nH]c6ccc(C)cc56)nn4)cc3)c3c(O)c4cc(OC)ccc4[nH]c3=O)c(O)c2c1 [Compound 8f, 3,3’-((4-((1-(6-Methyl-2-oxo-1,2-dihydroquinolin-4-yl)-1H-1,2,3-triazol-4-yl)methoxy)phenyl)methylene)bis(4-hydroxy-6-methoxyquinolin-2(1H)-one)]	87	3		3.4 ± 0.2	2.9 ± 0.5	3.1 ± 0.2	2.6 ± 0.8	365.60 ± 3.20	5.57	
COc1ccc2[nH]c(=O)c(C(c3ccc(OCc4cn(-c5cc(=O)n(C)c6ccccc56)nn4)cc3)c3c(O)c4cc(OC)ccc4[nH]c3=O)c(O)c2c1 [Compound 8h, 3,3’-((4-((1-(1-Methly-2-oxo-1,2-dihydroquinolin-4-yl)-1H-1,2,3-triazol-4-yl)methoxy)phenyl)methylene)bis(4-hydroxy-6-methoxyquinolin-2(1H)-one)]	90	10.7		10.8 ± 1.6	10.7 ± 2.5	10.8 ± 1.9	10.6 ± 2.9			
Cn1c(=O)c(C(c2ccc(OCc3cn(-c4cc(=O)[nH]c5ccccc45)nn3)cc2)c2c(O)c3ccccc3n(C)c2=O)c(O)c2ccccc21 [Compound 8i, 3,3’-((4-((1-(2-oxo-1,2-dihydroquinolin-4-yl)-1H-1,2,3-triazol-4-yl)methoxy)phenyl)-methylene)bis(4-hydroxy-1-methylquinolin-2(1H)-one)]	90	17.8		17.9 ± 1.1	17.9 ± 0.3	17.6 ± 1.5	17.8 ± 1.6			
Cc1ccc2[nH]c(=O)cc(-n3cc(COc4ccc(C(c5c(O)c6ccccc6n(C)c5=O)c5c(O)c6ccccc6n(C)c5=O)cc4)nn3)c2c1 [Compound 8j, 3,3’-((4-((1-(6-Methyl-2-oxo-1,2-dihydroquinolin-4-yl)-1H-1,2,3-triazol-4-yl)methoxy)phenyl)methylene)bis(4-hydroxy-1-methylquinolin-2(1H)-one)]	81	22.5		22.9 ± 0.6	22.5 ± 0.2	22.4 ± 0.2	22.1 ± 0.1			
COc1ccc2[nH]c(=O)cc(-n3cc(COc4ccc(C(c5c(O)c6ccccc6n(C)c5=O)c5c(O)c6ccccc6n(C)c5=O)cc4)nn3)c2c1 [Compound 8k]	90	14.4		14.8 ± 1.4	14.5 ± 2.6	14.6 ± 2.9	13.6 ± 2.2			
Cn1c(=O)cc(-n2cc(COc3ccc(C(c4c(O)c5ccccc5n(C)c4=O)c4c(O)c5ccccc5n(C)c4=O)cc3)nn2)c2ccccc21 [Compound 8l, 3,3’-((4-((1-(1-Methyl-2-oxo-1,2-dihydroquinolin-4-yl)-1H-1,2,3-triazol-4-yl)methoxy)phenyl)methylene)bis(4-hydroxy-1-methylquinolin-2(1H)-one)]	96	24.7		24.2 ± 1.4	25.3 ± 2.5	24.5 ± 2.3	24.9 ± 1.8			at least 4 fold
